Source: PMC10233829 (ACS Omega, 2023)
≈ marks a conversion by molar mass, not a printed value.

Key:
[1] = test system: E. cloacae 8; experiment: MIC, twofold microdilution, clinical strain; assay type: cell-based, Escherichia cloacae; conditions: Enterobacter cloacae, 8; clinical strain, 18 h
[2] = test system: S. aureus T5591; experiment: MIC, twofold microdilution, clinical strain; assay type: cell-based, Staphylococcus aureus; conditions: Staphylococcus aureus, T5591, 18 h
[3] = test system: S. epidermidis KR4243/1; experiment: MIC, twofold microdilution, clinical strain; assay type: cell-based; conditions: Staphylococcus epidermidis, 18 h
[4] = test system: S. pasteuri KR 4358; experiment: MIC, twofold microdilution, clinical strain; assay type: cell-based; conditions: Staphylococcus pasteuri, KR4358, 18 h
[5] = test system: K. pneumoniae 28; experiment: MIC, twofold microdilution, clinical strain; assay type: cell-based; conditions: Klebsiella pneumoniae, 18 h
[6] = test system: P. aeruginosa 659; experiment: MIC, twofold microdilution, clinical strain; assay type: cell-based; conditions: Pseudomonas aeruginosa, 18 h
[7] = test system: S. aureus ATCC 29213; experiment: MIC, twofold microdilution, standard strain; assay type: cell-based; conditions: Staphylococcus aureus, ATCC29213, 18 h
[8] = test system: PC3 cells; experiment: MTT assay, cytotoxic activity; assay type: cell-based, human; conditions: Homo sapiens, PC-3, 72 h, MTT, 72 h
Description: Metastatic prostate cancer (PC3) and human immortal keratinocyte (HaCaT) cell lines were purchased from the American Type Culture Collection (ATCC, Rockville, MD, USA) and cultured in MEM (minimal essential medium, Thermo Sci, USA), RPMI 1640 (Roswell Park Memorial Institute, Biowest SAS, France), and DMEM (Dulbecco’s Modified Eagle’s Medium, Biowest SAS, France). Cells were seeded in 6 mL medium in a tissue culture flask (50 mL) in a 37 °C/5% CO2 humidified incubator. […] MTT analysis was performed according to a previous study.[59] Untreated cells were used as controls. Cell absorbance results were inserted into the formula for the relative MTT level (%). It allows to calculate the viability of cells under the influence of the tested compounds. Cell viability was expressed as the percentage of MTT reduction in cells treated with tested compounds compared to the control sample. The relative MTT level was calculated using the formula [100%] = A/B × 100% where A—the test sample absorbance and B—the control sample absorbance.

[9] = test system: E. coli ATCC 25922; experiment: MIC, twofold microdilution, standard strain; assay type: cell-based, Escherichia coli; conditions: Escherichia coli, ATCC25922; standard strain, 18 h
[10] = test system: E. coli 520; experiment: MIC, twofold microdilution, clinical strain; assay type: cell-based; conditions: Escherichia coli, 18 h
[11] = test system: S. aureus 180; experiment: MIC, twofold microdilution, clinical strain; assay type: cell-based; conditions: Staphylococcus aureus, 18 h
[12] = test system: E. coli 600; experiment: MIC, twofold microdilution, clinical strain; assay type: cell-based, Escherichia coli; conditions: Escherichia coli, 600, 18 h
[13] = test system: S. aureus T5595; experiment: MIC, twofold microdilution, clinical strain; assay type: cell-based, Staphylococcus aureus; conditions: Staphylococcus aureus, T5595, 18 h
[14] = test system: S. epidermidis ATCC 35984; experiment: MIC, twofold microdilution, standard strain; assay type: cell-based; conditions: Staphylococcus epidermidis, ATCC35984, 18 h
[15] = test system: K. pneumoniae 510; experiment: MIC, twofold microdilution, clinical strain; assay type: cell-based, Klebsiella pneumoniae; conditions: Klebsiella pneumoniae, 510; clinical strain, 18 h
[16] = test system: P. aeruginosa 37; experiment: MIC, twofold microdilution, clinical strain; assay type: cell-based; conditions: Pseudomonas aeruginosa, 18 h
[17] = test system: M. tuberculosis H37Rv; experiment: Tuberculostatic activity, Microplate Alamar Blue Assay (MIC); assay type: cell-based, Mycobacterium tuberculosis; conditions: Mycobacterium tuberculosis, H37RV; MABA; read-out: MIC M. tuberculosis H37Rv
[18] = test system: S. aureus NCTC 4163; experiment: MIC, twofold microdilution, standard strain; assay type: cell-based; conditions: Staphylococcus aureus, NCTC4163, 18 h
[19] = test system: E. coli 951; experiment: MIC, twofold microdilution, clinical strain; assay type: cell-based; conditions: Escherichia coli, 18 h
[20] = test system: M. tuberculosis Spec. 192; experiment: Tuberculostatic activity, Microplate Alamar Blue Assay (MIC); assay type: cell-based; conditions: Mycobacterium tuberculosis, MABA, read-out: MIC M. tuberculosis Spec. 192 (sensitive to tuberculostatics)
[21] = test system: S. aureus ATCC 6538; experiment: MIC, twofold microdilution, standard strain; assay type: cell-based, Staphylococcus aureus; conditions: Staphylococcus aureus, ATCC6538; standard strain, 18 h
[22] = test system: S. epidermidis ATCC 12228; experiment: MIC, twofold microdilution, standard strain; assay type: cell-based; conditions: Staphylococcus epidermidis, ATCC12228, 18 h
[23] = test system: S. epidermidis 4341; experiment: MIC, twofold microdilution, clinical strain; assay type: cell-based; conditions: Staphylococcus epidermidis, 18 h
[24] = test system: S. aureus ATCC 25923; experiment: MIC, twofold microdilution, standard strain; assay type: cell-based; conditions: Staphylococcus aureus, ATCC25923, 18 h
[25] = test system: M. tuberculosis Spec 210; experiment: microbe, parasite or virus in culture; assay type: cell-based, Mycobacterium tuberculosis; conditions: M. tuberculosis Spec. 210
[26] = MTT assay, cytotoxic activity; assay type: cell-based; conditions: human, HaCaT cells (immortal keratinocytes); MTT, 72 h, normal cell line; read-out: IC50 HaCaT
Description: Cells were seeded in 6 mL medium in a tissue culture flask (50 mL) in a 37 °C/5% CO2 humidified incubator. […] MTT analysis was performed according to a previous study.[59] Untreated cells were used as controls. Cell absorbance results were inserted into the formula for the relative MTT level (%). It allows to calculate the viability of cells under the influence of the tested compounds. Cell viability was expressed as the percentage of MTT reduction in cells treated with tested compounds compared to the control sample. The relative MTT level was calculated using the formula [100%] = A/B × 100% where A—the test sample absorbance and B—the control sample absorbance.

[27] = test system: S. epidermidis 5253; experiment: MIC, twofold microdilution, clinical strain; assay type: cell-based, Staphylococcus epidermidis; conditions: Staphylococcus epidermidis, 5253, 18 h
[28] = test system: S. aureus 5595; experiment: MIC, twofold microdilution, clinical strain; assay type: cell-based; conditions: Staphylococcus aureus, 18 h
[29] = test system: P. aeruginosa ATCC 15442; experiment: MIC, twofold microdilution, standard strain; assay type: cell-based, Pseudomonas aeruginosa; conditions: Pseudomonas aeruginosa, ATCC15442; standard strain, 18 h
[30] = test system: Staphylococci (standard strains); experiment: MIC, standard Gram-positive strains as a panel; assay type: cell-based, S. aureus, S. epidermidis; conditions: standard Gram-positive strains of Table 1; read-out: MIC toward standard Staphylococci (range over strains)
[31] = test system: clinical bacterial strains; experiment: MIC, clinical isolates as groups of strains; assay type: cell-based

Structure (SMILES) | MIC [1] [µg/mL] | MIC [2] [µg/mL] | MIC [3] [µg/mL] | MIC [4] [µg/mL] | MIC [5] [µg/mL] | MIC [6] [µg/mL] | MIC [7] [µg/mL] | IC50 [8] [µM] | MIC [9] [µg/mL] | MIC [10] [µg/mL] | MIC [11] [µg/mL] | MIC [12] [µg/mL] | MIC [13] [µg/mL] | MIC [14] [µg/mL] | MIC [15] [µg/mL] | MIC [16] [µg/mL] | MIC [17] [µg/mL] | MIC [18] [µg/mL] | MIC [19] [µg/mL] | MIC [20] [µg/mL] | further results
O=C(O)c1cn(C2CC2)c2cc(N3CCN(C(=O)CCCCCCCCCCBr)CC3)c(F)cc2c1=O [Compound 13, 7-[4-(11-Bromoundekanoyl)-piperazin-1-yl]-1-cyclopropyl-6-fluoro-4-oxo-1,4-dihydro-quinoline-3-carboxylic Acid] | > 25.6 | > 25.6 | > 25.6 | > 25.6 | > 25.6 | > 25.6 | 12.8 (≈ 22.1 µM) | 33.7 ± 8.2 | 25.6 (≈ 44.3 µM) | > 25.6 | > 25.6 | > 25.6 | > 25.6 | 12.8 (≈ 22.1 µM) | > 25.6 | > 25.6 | 2 (≈ 3.46 µM) | 6.4 (≈ 11.1 µM) | > 25.6 | 4 (≈ 6.91 µM) | MIC [21]: 12.8 µg/mL (≈ 22.1 µM); MIC [22]: 12.8 µg/mL (≈ 22.1 µM); MIC [23]: > 25.6 µg/mL; MIC [24]: 12.8 µg/mL (≈ 22.1 µM); fold more effective than the reference tuberculostatics [25]: 8–32 fold; IC50 at 72 h [26]: 93.4 ± 10.1 µM; MIC [27]: > 25.6 µg/mL; MIC [28]: > 25.6 µg/mL; MIC [29]: > 25.6 µg/mL
O=C(O)c1cn(C2CC2)c2cc(N3CCN(C(=O)CCCC(F)(F)F)CC3)c(F)cc2c1=O [Compound 16, 7-[4-(5,5,5-Trifluoropentanoyl)-piperazin-1-yl]-1-cyclopropyl-6-fluoro-4-oxo-1,4-dihydro-quinoline-3-carboxylic Acid] | 8 (≈ 17 µM) | 0.4 (≈ 0.852 µM) | 0.4 (≈ 0.852 µM) | 0.4 (≈ 0.852 µM) | > 25.6 | > 25.6 | 0.2 (≈ 0.426 µM) | 68.8 ± 9.9 | 1.6 (≈ 3.41 µM) | 3.2 (≈ 6.82 µM) | 1 (≈ 2.13 µM) | 6.4 (≈ 13.6 µM) | 0.4 (≈ 0.852 µM) | 0.2 (≈ 0.426 µM) | > 25.6 | > 25.6 | 64 (≈ 136 µM) | 0.2 (≈ 0.426 µM) | > 25.6 | 64 (≈ 136 µM) | MIC [30]: 0.2 µg/mL (≈ 0.426 µM); MIC [21]: 0.2 µg/mL (≈ 0.426 µM); MIC [22]: 0.2 µg/mL (≈ 0.426 µM); MIC [23]: 25.6 µg/mL (≈ 54.5 µM); MIC [24]: 0.2 µg/mL (≈ 0.426 µM); IC50 at 72 h [26]: > 100 µM; MIC [27]: > 25.6 µg/mL; share of the reference (CP) activity ([31]; S. aureus T5595 and T5591): 62.5%; MIC [28]: 1 µg/mL (≈ 2.13 µM); MIC [29]: 1 µg/mL (≈ 2.13 µM)
O=C(O)c1cn(C2CC2)c2cc(N3CCN(CCCC(=O)N4CCN(c5cc6c(cc5F)c(=O)c(C(=O)O)cn6C5CC5)CC4)CC3)c(F)cc2c1=O [Compound 18, CP–Butyryl–CP Dimer] | 0.8 (≈ 1.09 µM) | 6.4 (≈ 8.76 µM) | 3.2 (≈ 4.38 µM) | 3.2 (≈ 4.38 µM) | > 25.6 | > 25.6 | 4 (≈ 5.47 µM) | > 100 | 16 (≈ 21.9 µM) | 1.6 (≈ 2.19 µM) | 6.4 (≈ 8.76 µM) | 0.4 (≈ 0.547 µM) | 6.4 (≈ 8.76 µM) | 16 (≈ 21.9 µM) | > 25.6 | 12.8 (≈ 17.5 µM) | 8 (≈ 10.9 µM) | 2 (≈ 2.74 µM) | 6.4 (≈ 8.76 µM) | 16 (≈ 21.9 µM) | MIC [21]: 2 µg/mL (≈ 2.74 µM); MIC [22]: 1 µg/mL (≈ 1.37 µM); MIC [23]: > 25.6 µg/mL; MIC [24]: 4 µg/mL (≈ 5.47 µM); fold more effective than the reference tuberculostatics [25]: 2–8 fold; IC50 at 72 h [26]: 92.2 ± 8.7 µM; MIC [27]: > 25.6 µg/mL; MIC ([31]; clinical strains, read-out: MIC against selected E. coli and E. cloacae strains): 0.1 to 0.8 µg/mL (≈ 0.137 to 1.09 µM); MIC [28]: 6.4 µg/mL (≈ 8.76 µM); MIC [29]: 4 µg/mL (≈ 5.47 µM)
